What was measured:
Assay type in all cases: cell-based
CysLT2R Y119^3.33F = biological target: T1, CysLT2R Y119^3.33F (Homo sapiens, UniProt Q9NS75, Y119F); assay: IP1 production assay, HEK293 transfected with CysLT2R mutant
T1 construct: expressed in transfected cells; host or cells: HEK293 (ATCC CRL-1573)
Text: (§1) For CysLT2R functional assays, the initial CysLT2R wild-type gene with an N-terminal 3 × HA tag cloned into pcDNA3.1+ (Invitrogen) at EcoRI(5′) and XhoI(3′) was purchased from cDNA.org. All further gene modifications (point mutations, truncations, or partner protein fusion) were introduced by overlapping PCR. Sequences of all primers used in this work are listed in Supplementary Table 4.
(§2) The Cisbio IP-One kit was used according to the manufacturer’s instructions. HEK293 cells (ATCC CRL-1573) were seeded onto poly-L-Lysine-coated 384-well plates at 20,000 cells per well and transfected with 40 ng of DNA coding for the wild-type CysLT2R or for the CysLT2R mutants using the X-treme-Gene HP (Roche) agent. At 48 h post transfection, the media was removed and the cells were washed with fresh Hank’s Balanced Salt Solution. […] After equilibration for 30 min at 37 °C, the cells were lysed with IP1-D2 and Ab-Crypt reagents in lysis buffer and then incubated for 1 h at RT. […] Data were plotted using the three parameters EC50/IC50 fit in GraphPad Prism 7 (San Diego, CA) and represent the mean ± s.d. of at least two independent experiments performed in quadruplicate.

CysLT2R E310^8.48G = biological target: T2, CysLT2R E310^8.48G (Homo sapiens, UniProt Q9NS75, E310G); assay: as above
T2 construct: expressed in transfected cells; host or cells: HEK293 (ATCC CRL-1573)
Text: as §1, §2

CysLT2R R267^6.55K = biological target: T3, CysLT2R R267^6.55K (Homo sapiens, UniProt Q9NS75, R267K); assay: as above
T3 construct: expressed in transfected cells; host or cells: HEK293 (ATCC CRL-1573)
Text: as §1, §2

CysLT2R M201^5.38V = biological target: T4, CysLT2R M201^5.38V (Homo sapiens, UniProt Q9NS75, M201V); assay: as above
T4 construct: expressed in transfected cells; host or cells: HEK293 (ATCC CRL-1573)
Text: as §1, §2

CysLT2R F137^3.51Y = biological target: T5, CysLT2R F137^3.51Y (Homo sapiens, UniProt Q9NS75, F137Y); assay: as above
T5 construct: expressed in transfected cells; host or cells: HEK293 (ATCC CRL-1573)
Text: as §1, §2

CysLT2R W51^1.45V = biological target: T6, CysLT2R W51^1.45V (Homo sapiens, UniProt Q9NS75, W51V); assay: as above
T6 construct: expressed in transfected cells; host or cells: HEK293 (ATCC CRL-1573)
Text: as §1, §2

CysLT2R N202^5.39H = biological target: T7, CysLT2R N202^5.39H (Homo sapiens, UniProt Q9NS75, N202H); assay: as above
T7 construct: expressed in transfected cells; host or cells: HEK293 (ATCC CRL-1573)
Text: as §1, §2

CysLT2R S169^4.56A = biological target: T8, CysLT2R S169^4.56A (Homo sapiens, UniProt Q9NS75, S169A); assay: as above
T8 construct: expressed in transfected cells; host or cells: HEK293 (ATCC CRL-1573)
Text: as §1, §2

CysLT2R V135^3.49D = biological target: T9, CysLT2R V135^3.49D (Homo sapiens, UniProt Q9NS75, V135D); assay: as above
T9 construct: expressed in transfected cells; host or cells: HEK293 (ATCC CRL-1573)
Text: as §1, §2

CysLT2R K194 ^ECL2N = biological target: T10, CysLT2R K194 ^ECL2N (Homo sapiens, UniProt Q9NS75, K194N); assay: as above
T10 construct: expressed in transfected cells; host or cells: HEK293 (ATCC CRL-1573)
Text: as §1, §2

CysLT2R F260^6.48W = biological target: T11, CysLT2R F260^6.48W (Homo sapiens, UniProt Q9NS75, F260W); assay: as above
T11 construct: expressed in transfected cells; host or cells: HEK293 (ATCC CRL-1573)
Text: as §1, §2

CysLT2R N301^7.49D = biological target: T12, CysLT2R N301^7.49D (Homo sapiens, UniProt Q9NS75, N301D); assay: as above
T12 construct: expressed in transfected cells; host or cells: HEK293 (ATCC CRL-1573)
Text: as §1, §2

CysLT2R Y127^3.41W = biological target: T13, CysLT2R Y127^3.41W (Homo sapiens, UniProt Q9NS75, Y127W); assay: as above
T13 construct: expressed in transfected cells; host or cells: HEK293 (ATCC CRL-1573)
Text: as §1, §2

CysLT2R H284^7.32Q = biological target: T14, CysLT2R H284^7.32Q (Homo sapiens, UniProt Q9NS75, H284Q); assay: as above
T14 construct: expressed in transfected cells; host or cells: HEK293 (ATCC CRL-1573)
Text: as §1, §2

CysLT2R K37^1.31R = biological target: T15, CysLT2R K37^1.31R (Homo sapiens, UniProt Q9NS75, K37R); assay: as above
T15 construct: expressed in transfected cells; host or cells: HEK293 (ATCC CRL-1573)
Text: as §1, §2

CysLT2R I126^3.40V = biological target: T16, CysLT2R I126^3.40V (Homo sapiens, UniProt Q9NS75, I126V); assay: as above
T16 construct: expressed in transfected cells; host or cells: HEK293 (ATCC CRL-1573)
Text: as §1, §2

CysLT2R L129^3.43Q = biological target: T17, CysLT2R L129^3.43Q (Homo sapiens, UniProt Q9NS75, L129Q); assay: as above; conditions: for remaining activity at 1 µM: HEK293, Log[Antagonist] -6 M, L129Q constitutive activity, source data Supp Figure 6D; for remaining activity at 0.01 µM: HEK293, Log[Antagonist] -8 M; for remaining activity at 0.001 µM: HEK293, Log[Antagonist] -9 M; for reversal of constitutive activity (IP1 production) of L129^3.43Q: antagonist 1 µM
T17 construct: expressed in transfected cells; host or cells: HEK293 (ATCC CRL-1573)
T17 sequence (Q9NS75 1-346 L129Q): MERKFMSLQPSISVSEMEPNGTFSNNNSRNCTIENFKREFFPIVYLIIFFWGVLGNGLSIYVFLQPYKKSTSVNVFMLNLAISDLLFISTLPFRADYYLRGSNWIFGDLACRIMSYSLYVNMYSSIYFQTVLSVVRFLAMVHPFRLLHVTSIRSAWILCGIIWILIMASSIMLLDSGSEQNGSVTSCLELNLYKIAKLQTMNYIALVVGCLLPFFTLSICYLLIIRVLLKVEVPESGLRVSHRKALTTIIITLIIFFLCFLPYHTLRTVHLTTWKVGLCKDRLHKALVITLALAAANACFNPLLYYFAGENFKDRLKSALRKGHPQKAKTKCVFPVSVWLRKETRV
Text: as §1, §2

CysLT2R K194 ^ECL2R = biological target: T18, CysLT2R K194 ^ECL2R (Homo sapiens, UniProt Q9NS75, K194R); assay: as above
T18 construct: expressed in transfected cells; host or cells: HEK293 (ATCC CRL-1573)
Text: as §1, §2

CysLT2R E310^8.48A = biological target: T19, CysLT2R E310^8.48A (Homo sapiens, UniProt Q9NS75, E310A); assay: as above
T19 construct: expressed in transfected cells; host or cells: HEK293 (ATCC CRL-1573)
Text: as §1, §2

CysLT2R wild type = biological target: T20, CysLT2R wild type (Homo sapiens, UniProt Q9NS75); assay: IP1 production assay (Cisbio IP-One), HEK293 cells transfected with wild-type CysLT2R
T20 construct: host or cells: HEK293 (ATCC CRL-1573)
Procedure: as §1
The Cisbio IP-One kit was used according to the manufacturer’s instructions. […] At 48 h post transfection, the media was removed and the cells were washed with fresh Hank’s Balanced Salt Solution. […] After equilibration for 30 min at 37 °C, the cells were lysed with IP1-D2 and Ab-Crypt reagents in lysis buffer and then incubated for 1 h at RT. […] Data were plotted using the three parameters EC50/IC50 fit in GraphPad Prism 7 (San Diego, CA) and represent the mean ± s.d. of at least two independent experiments performed in quadruplicate.

[1] = read-out: IP1 production (normalized), single replicate values
[2] = L129Q, Supp Figure 6D, read-out: IP1 production (normalized), single replicate values

T15 sequence (Q9NS75 whole entry K37R): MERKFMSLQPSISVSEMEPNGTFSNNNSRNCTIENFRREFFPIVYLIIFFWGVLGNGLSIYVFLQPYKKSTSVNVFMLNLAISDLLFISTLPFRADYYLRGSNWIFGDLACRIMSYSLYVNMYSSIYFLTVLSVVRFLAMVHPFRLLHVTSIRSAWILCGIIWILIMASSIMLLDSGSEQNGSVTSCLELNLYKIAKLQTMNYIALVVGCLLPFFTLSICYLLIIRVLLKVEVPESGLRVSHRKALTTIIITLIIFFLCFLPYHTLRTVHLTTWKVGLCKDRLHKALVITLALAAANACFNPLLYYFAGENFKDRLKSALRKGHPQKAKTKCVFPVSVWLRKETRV
T12 sequence (Q9NS75 whole entry N301D): as the sequence (Q9NS75 whole entry K37R) above, with R37K, N301D counted along it
T16 sequence (Q9NS75 whole entry I126V): as the sequence (Q9NS75 whole entry K37R) above, with R37K, I126V counted along it
T1 sequence (Q9NS75 whole entry Y119F): as the sequence (Q9NS75 whole entry K37R) above, with R37K, Y119F counted along it
T6 sequence (Q9NS75 whole entry W51V): as the sequence (Q9NS75 whole entry K37R) above, with R37K, W51V counted along it
T7 sequence (Q9NS75 whole entry N202H): as the sequence (Q9NS75 whole entry K37R) above, with R37K, N202H counted along it
T19 sequence (Q9NS75 whole entry E310A): as the sequence (Q9NS75 whole entry K37R) above, with R37K, E310A counted along it
T2 sequence (Q9NS75 whole entry E310G): as the sequence (Q9NS75 whole entry K37R) above, with R37K, E310G counted along it
T14 sequence (Q9NS75 whole entry H284Q): as the sequence (Q9NS75 whole entry K37R) above, with R37K, H284Q counted along it
T4 sequence (Q9NS75 whole entry M201V): as the sequence (Q9NS75 whole entry K37R) above, with R37K, M201V counted along it
T18 sequence (Q9NS75 whole entry K194R): as the sequence (Q9NS75 whole entry K37R) above, with R37K, K194R counted along it
T5 sequence (Q9NS75 whole entry F137Y): as the sequence (Q9NS75 whole entry K37R) above, with R37K, F137Y counted along it
T13 sequence (Q9NS75 whole entry Y127W): as the sequence (Q9NS75 whole entry K37R) above, with R37K, Y127W counted along it
T8 sequence (Q9NS75 whole entry S169A): as the sequence (Q9NS75 whole entry K37R) above, with R37K, S169A counted along it
T20 sequence (Q9NS75 whole entry): as the sequence (Q9NS75 whole entry K37R) above, with R37K counted along it
T11 sequence (Q9NS75 whole entry F260W): as the sequence (Q9NS75 whole entry K37R) above, with R37K, F260W counted along it
T9 sequence (Q9NS75 whole entry V135D): as the sequence (Q9NS75 whole entry K37R) above, with R37K, V135D counted along it
T3 sequence (Q9NS75 whole entry R267K): as the sequence (Q9NS75 whole entry K37R) above, with R37K, R267K counted along it
T10 sequence (Q9NS75 whole entry K194N): as the sequence (Q9NS75 whole entry K37R) above, with R37K, K194N counted along it

## O=C(O)CCCN1C[C@@H](C(=O)O)Oc2c(NC(=O)c3ccc(OCCCCc4cc(F)ccc4Cl)cc3)cccc21 [cpd 11a]
CysLT2R Y119^3.33F
  IC50: 100 ± 40 nM
CysLT2R E310^8.48G
  IC50: 2 ± 1 nM
CysLT2R R267^6.55K
  IC50: 22 ± 9 nM
CysLT2R M201^5.38V
  IC50: 30 ± 10 nM
CysLT2R F137^3.51Y
  IC50: 15 ± 5 nM
CysLT2R W51^1.45V
  IC50: 47 ± 10 nM
CysLT2R N202^5.39H
  IC50: 290 ± 100 nM
CysLT2R S169^4.56A
  IC50: 10 ± 4 nM
CysLT2R V135^3.49D
  IC50: 3 ± 3 nM
CysLT2R K194 ^ECL2N
  IC50: 8 ± 4 nM
CysLT2R F260^6.48W
  IC50: 40 ± 20 nM
CysLT2R N301^7.49D
  IC50: 170 ± 70 nM
CysLT2R Y127^3.41W
  IC50: 500 ± 400 nM
CysLT2R H284^7.32Q
  IC50: 230 ± 90 nM
CysLT2R K37^1.31R
  IC50: 80 ± 30 nM
CysLT2R I126^3.40V
  IC50: 20 ± 10 nM
CysLT2R L129^3.43Q; [1]
  remaining activity at 1 µM: 76.2%
CysLT2R L129^3.43Q; [2]
  remaining activity at 0.01 µM: 78.3%
  remaining activity at 0.001 µM: 74.4%
CysLT2R L129^3.43Q
  reversal of constitutive activity (IP1 production) of L129^3.43Q: not reversed
CysLT2R K194 ^ECL2R
  IC50: 60 ± 30 nM
CysLT2R E310^8.48A
  IC50: 8 ± 3 nM
CysLT2R wild type
  IC50: 14 ± 6 nM

## O=C(O)CCCN1CC(C(=O)O)Oc2c(NC(=O)c3ccc(OCCCCOc4cccc(F)c4F)cc3F)cccc21 (centres unmarked) [cpd 11c]
CysLT2R Y119^3.33F
  IC50: 260 ± 100 nM
CysLT2R E310^8.48G
  IC50: 7 ± 6 nM
CysLT2R R267^6.55K
  IC50: 100 ± 30 nM
CysLT2R M201^5.38V
  IC50: 60 ± 20 nM
CysLT2R F137^3.51Y
  IC50: 70 ± 20 nM
CysLT2R W51^1.45V
  IC50: 160 ± 30 nM
CysLT2R N202^5.39H
  IC50: 60 ± 30 nM
CysLT2R S169^4.56A
  IC50: 16 ± 10 nM
CysLT2R V135^3.49D
  IC50: 40 ± 30 nM
CysLT2R K194 ^ECL2N
  IC50: 32 ± 10 nM
CysLT2R F260^6.48W
  IC50: 330 ± 100 nM
CysLT2R N301^7.49D
  IC50: 110 ± 50 nM
CysLT2R Y127^3.41W
  IC50: 44 ± 10 nM
CysLT2R H284^7.32Q
  IC50: 270 ± 200 nM
CysLT2R K37^1.31R
  IC50: 280 ± 100 nM
CysLT2R I126^3.40V
  IC50: 14 ± 5 nM
CysLT2R L129^3.43Q; [1]
  remaining activity at 1 µM: 80.7%
CysLT2R L129^3.43Q; HEK293, Log[Antagonist] -7 M, L129Q, Supp Figure 6D, read-out: IP1 production (normalized), single replicate values
  remaining activity at 0.1 µM: 85.9%
CysLT2R L129^3.43Q; [2]
  remaining activity at 0.01 µM: 83.3%
  remaining activity at 0.001 µM: 87.9%
CysLT2R L129^3.43Q; HEK293, Log[Antagonist] -10 M, L129Q, Supp Figure 6D, read-out: IP1 production (normalized), single replicate values
  remaining activity at 0.0001 µM: 72.7%
CysLT2R L129^3.43Q; HEK293, Log[Antagonist] -11 M, L129Q, Supp Figure 6D, read-out: IP1 production (normalized), single replicate values
  remaining activity at 10 pM: 64.1%
CysLT2R L129^3.43Q; HEK293, Log[Antagonist] -12 M, L129Q, Supp Figure 6D, read-out: IP1 production (normalized), single replicate values
  remaining activity at 1 pM: 68%
CysLT2R L129^3.43Q
  reversal of constitutive activity (IP1 production) of L129^3.43Q: not reversed
CysLT2R K194 ^ECL2R
  IC50: 40 ± 20 nM
CysLT2R E310^8.48A
  IC50: 18 ± 5 nM
CysLT2R wild type
  IC50: 70 ± 20 nM

Source: paper PMC6897958, “Structural basis of ligand selectivity and disease mutations in cysteinyl leukotriene receptors” (Nature Communications, 2019)
